Broadly, the IC50 is the concentration that inhibits the measured activity by half.

We go through 23 compounds from patent US20260151383A1, “HETEROCYCLIC COMPOUNDS AND USES THEREOF” (KayoThera Inc., priority 2022, published 2026).

Common to all, as to format: biochemical
What all share (settings): recombinant enzyme, 20° C., activity level classes

The target of one assay is T1, mALDH1a3 (Mus musculus, UniProt Q9JHW9).
T1 construct: made in house; host or cells: E. coli BL21-DE3
T1 sequence (Q9JHW9 1-512): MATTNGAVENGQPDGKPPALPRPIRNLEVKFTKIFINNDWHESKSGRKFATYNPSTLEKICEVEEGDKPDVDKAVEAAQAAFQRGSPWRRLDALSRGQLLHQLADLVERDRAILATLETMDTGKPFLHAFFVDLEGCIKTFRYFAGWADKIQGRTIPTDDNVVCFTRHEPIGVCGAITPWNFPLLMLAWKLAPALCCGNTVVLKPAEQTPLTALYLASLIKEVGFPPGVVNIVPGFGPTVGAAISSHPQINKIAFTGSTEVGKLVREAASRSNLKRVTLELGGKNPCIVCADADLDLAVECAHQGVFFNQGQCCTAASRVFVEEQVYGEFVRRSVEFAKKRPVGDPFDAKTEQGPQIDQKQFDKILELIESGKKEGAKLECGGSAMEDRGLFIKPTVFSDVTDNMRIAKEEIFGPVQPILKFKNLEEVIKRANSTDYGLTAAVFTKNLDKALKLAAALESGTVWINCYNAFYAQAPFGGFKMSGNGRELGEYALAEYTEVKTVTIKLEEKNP
Kind of assay: Aldh1a3 enzyme inhibition assay (resorufin fluorescence), mouse enzyme. The text has this: Recombinant enzyme and inhibitor added immediately before assay. Reaction rate measured by resorufin fluorescence.

The next assay concerns the target T2, hALDH1a2 (Homo sapiens, UniProt O94788).
T2 construct: made in house; host or cells: E. coli BL21-DE3
T2 sequence (O94788 1-518): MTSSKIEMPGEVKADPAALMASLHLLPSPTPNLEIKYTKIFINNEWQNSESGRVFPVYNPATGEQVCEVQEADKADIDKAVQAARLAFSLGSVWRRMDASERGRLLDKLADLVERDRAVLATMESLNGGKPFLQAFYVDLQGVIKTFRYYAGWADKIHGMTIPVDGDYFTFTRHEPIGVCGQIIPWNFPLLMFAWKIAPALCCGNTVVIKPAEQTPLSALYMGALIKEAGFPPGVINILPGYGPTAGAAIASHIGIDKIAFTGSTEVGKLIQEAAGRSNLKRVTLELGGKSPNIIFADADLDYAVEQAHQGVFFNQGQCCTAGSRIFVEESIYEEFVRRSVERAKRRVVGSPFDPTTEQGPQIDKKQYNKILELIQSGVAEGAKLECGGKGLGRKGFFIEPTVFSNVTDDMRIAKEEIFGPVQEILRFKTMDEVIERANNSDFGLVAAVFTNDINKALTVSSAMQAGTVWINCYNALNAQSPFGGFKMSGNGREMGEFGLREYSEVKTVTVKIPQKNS
Kind of assay: Aldh1a2 enzyme inhibition assay (resorufin fluorescence), human enzyme. An excerpt:
(§1) Recombinant enzyme and inhibitor added immediately before assay. Reaction rate measured by resorufln fluorescence.

In another assay the target is T3, mALDH1a2 (Mus musculus, UniProt Q62148).
T3 construct: made in house; host or cells: E. coli BL21-DE3
T3 sequence (Q62148 1-518): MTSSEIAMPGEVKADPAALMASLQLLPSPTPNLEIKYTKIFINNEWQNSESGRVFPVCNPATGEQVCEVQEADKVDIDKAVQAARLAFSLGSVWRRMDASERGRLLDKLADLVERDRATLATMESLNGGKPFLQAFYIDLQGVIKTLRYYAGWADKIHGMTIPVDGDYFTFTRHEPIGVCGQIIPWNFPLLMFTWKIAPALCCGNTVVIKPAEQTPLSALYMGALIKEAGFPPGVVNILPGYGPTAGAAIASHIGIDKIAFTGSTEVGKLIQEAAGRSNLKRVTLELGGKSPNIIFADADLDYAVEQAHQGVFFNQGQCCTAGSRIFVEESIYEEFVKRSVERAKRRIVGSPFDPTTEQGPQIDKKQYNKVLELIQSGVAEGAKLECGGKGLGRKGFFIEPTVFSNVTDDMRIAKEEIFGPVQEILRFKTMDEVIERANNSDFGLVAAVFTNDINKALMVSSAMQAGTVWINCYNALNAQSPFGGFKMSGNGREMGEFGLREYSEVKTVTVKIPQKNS
Description: Aldh1a2 enzyme inhibition assay (resorufin fluorescence), mouse enzyme.
Text: as §1

The next assay addresses T4, hALDH1a3 (Homo sapiens, UniProt P47895).
T4 construct: made in house; host or cells: E. coli BL21-DE3
T4 sequence (P47895 1-512): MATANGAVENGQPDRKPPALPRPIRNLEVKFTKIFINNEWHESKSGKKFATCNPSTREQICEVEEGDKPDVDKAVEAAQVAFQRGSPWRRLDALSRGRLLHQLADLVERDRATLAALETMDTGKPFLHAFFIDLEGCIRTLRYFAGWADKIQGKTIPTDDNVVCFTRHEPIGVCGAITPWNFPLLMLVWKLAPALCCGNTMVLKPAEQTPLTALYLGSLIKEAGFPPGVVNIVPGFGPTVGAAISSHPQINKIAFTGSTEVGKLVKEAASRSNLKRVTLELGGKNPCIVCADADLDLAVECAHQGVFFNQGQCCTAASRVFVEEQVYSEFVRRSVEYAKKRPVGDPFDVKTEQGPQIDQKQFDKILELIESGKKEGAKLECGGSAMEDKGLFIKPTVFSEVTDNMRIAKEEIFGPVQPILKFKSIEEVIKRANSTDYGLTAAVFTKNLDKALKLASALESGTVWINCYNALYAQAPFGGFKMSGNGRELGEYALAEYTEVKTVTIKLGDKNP
Kind of assay: Aldh1a3 enzyme inhibition assay (resorufin fluorescence), human enzyme.

Where only a bound is given, the exact number is not on record here.

For `Cc1cc(NC(=O)c2ccncc2-c2ccccc2)cc2c1NC(=O)CC2` [Compound 1, N-(8-methyl-2-oxo-1,2,3,4-tetrahydroquinolin-6-yl)-3-phenylisonicotinamide], the IC50 on mALDH1a3 lay within 1000 to 5000 nM; on hALDH1a2 it was 100 to 250 nM; on mALDH1a2, 100 to 250 nM; at hALDH1a3 it was 1000 to 5000 nM.
In the case of `Cc1cc(NC(=O)c2ccncc2-c2ccccc2F)cc2c1NC(=O)CC2` [Compound 2, 3-(2-fluorophenyl)-N-(8-methyl-2-oxo-1,2,3,4-tetrahydroquinolin-6-yl)isonicotinamide], on mALDH1a3, the “mAldh1a3 IC50” value is recorded as “No activity”. In addition, the IC50 at hALDH1a2 lay within 100 to 250 nM; on mALDH1a2, 250 to 1000 nM; on hALDH1a3, 1000 to 5000 nM.
For the compound `Cc1cc(NC(=O)c2ccncc2-c2cccc(F)c2)cc2c1NC(=O)CC2` [Compound 3, 3-(3-fluorophenyl)-N-(8-methyl-2-oxo-1,2,3,4-tetrahydroquinolin-6-yl)isonicotinamide], at mALDH1a3, the “mAldh1a3 IC50” value was “No activity”. For the same compound, the IC50 on hALDH1a2 was 250 to 1000 nM; at mALDH1a2, 250 to 1000 nM; at hALDH1a3, 1000 to 5000 nM.
Take `Cc1cc(NC(=O)c2scnc2-c2cccc(F)c2)cc2c1NC(=O)CC2` [Compound 4, 4-(3-fluorophenyl)-N-(8-methyl-2-oxo-1,2,3,4-tetrahydroquinolin-6-yl)thiazole-5-carboxamide]: the IC50 at mALDH1a3 was 250 to 1000 nM; on hALDH1a2, 250 to 1000 nM; on mALDH1a2 it was 250 to 1000 nM; at hALDH1a3, 100 to 250 nM.
As to `O=C1CCc2cc(NC(=O)c3scnc3-c3cccc(F)c3)c(F)cc2N1` [Compound 5, N-(7-fluoro-2-oxo-1,2,3,4-tetrahydroquinolin-6-yl)-4-(3-fluorophenyl)thiazole-5-carboxamide], the IC50 is 100 to 250 nM at mALDH1a3, 1000 to 5000 nM at hALDH1a2, 1000 to 5000 nM on mALDH1a2 and below 100 nM at hALDH1a3.
Take `O=C1CCc2cc(NC(=O)c3scnc3-c3cccc(F)c3)ccc2N1` [Compound 6, 4-(3-fluorophenyl)-N-(2-oxo-1,2,3,4-tetrahydroquinolin-6-yl)thiazole-5-carboxamide]: the IC50 was 100 to 250 nM on mALDH1a3, 1000 to 5000 nM on hALDH1a2, 1000 to 5000 nM on mALDH1a2 and below 100 nM on hALDH1a3.
Turning to `Cc1cc(NC(=O)c2ccncc2CC(F)(F)F)cc2c1NC(=O)CS2` [Compound 7], the IC50 on mALDH1a3 was 100 to 250 nM; on hALDH1a2, 250 to 1000 nM; on mALDH1a2, 250 to 1000 nM; at hALDH1a3, 100 to 250 nM.
In the case of `Cc1cc(OCCNC(=O)c2cccc(F)c2)cc2c1NC(=O)CC2` [Compound 8, 3-fluoro-N-(2-((8-methyl-2-oxo-1,2,3,4-tetrahydroquinolin-6-yl)oxy)ethyl)benzamide], the “mAldh1a3 IC50” value on mALDH1a3 is listed as “No activity”. Moreover, the “hAldh1a2 IC50” value on hALDH1a2 is “No activity”. Besides, the “mAldh1a2 IC50” value on mALDH1a2 was “No activity”. Moreover, at hALDH1a3, the “hAldh1a3 IC50” value is listed as “No activity”.
Turning to `Cc1cc(OCCN(C)C(=O)c2cccc(F)c2)cc2c1NC(=O)CC2` [Compound 9, 3-fluoro-N-methyl-N-(2-((8-methyl-2-oxo-1,2,3,4-tetrahydroquinolin-6-yl)oxy)ethyl)benzamide], the IC50 on mALDH1a3 was above 5000 nM; at hALDH1a2, 1000 to 5000 nM; on mALDH1a2, 1000 to 5000 nM; on hALDH1a3 it was above 5000 nM.
Consider `Cc1cc(OCCN(C)Cc2cccc(F)c2)cc2c1NC(=O)CC2` [Compound 10], for which the IC50 on mALDH1a3, on hALDH1a2, at mALDH1a2 and on hALDH1a3 was 1000 to 5000 nM in each case.
`Cc1cccc(-c2cnccc2C(=O)Nc2cc(C)c3c(c2)CCC(=O)N3)c1` [Compound 11, N-(8-methyl-2-oxo-1,2,3,4-tetrahydroquinolin-6-yl)-3-(m-tolyl)isonicotinamide]: the “mAldh1a3 IC50” value at mALDH1a3 is listed as “No activity”. Moreover, the IC50 on hALDH1a2 and at mALDH1a2 was 1000 to 5000 nM in each case. Also, the “hAldh1a3 IC50” value at hALDH1a3 is recorded as “No activity”.
Consider `Cc1cc(NC(=O)c2ccncc2-c2cccc(C#N)c2)cc2c1NC(=O)CC2` [Compound 12], for which, at mALDH1a3, the “mAldh1a3 IC50” value is given as “No activity”. Also, the IC50 on hALDH1a2 is 1000 to 5000 nM; at mALDH1a2 it was above 5000 nM. Further, the “hAldh1a3 IC50” value on hALDH1a3 was “No activity”.
Take `Cc1ccc(-c2cnccc2C(=O)Nc2cc(C)c3c(c2)CCC(=O)N3)cc1` [Compound 13]: at mALDH1a3, the “mAldh1a3 IC50” value is listed as “No activity”. For the same compound, the IC50 on hALDH1a2 and on mALDH1a2 was above 5000 nM throughout. In addition, the “hAldh1a3 IC50” value on hALDH1a3 is recorded as “No activity”.
Consider `Cc1cc(NC(=O)c2ccncc2-c2ccc(C#N)cc2)cc2c1NC(=O)CC2` [Compound 14], for which the “mAldh1a3 IC50” value on mALDH1a3 is reported as “No activity”. In addition, the IC50 at hALDH1a2 and on mALDH1a2 was above 5000 nM in each case. The “hAldh1a3 IC50” value on hALDH1a3 is on record as “No activity”.
Turning to `Cc1ccccc1-c1cnccc1C(=O)Nc1cc(C)c2c(c1)CCC(=O)N2` [Compound 15, N-(8-methyl-2-oxo-1,2,3,4-tetrahydroquinolin-6-yl)-3-(o-tolyl)isonicotinamide], at mALDH1a3, the “mAldh1a3 IC50” value is listed as “No activity”. Further, the IC50 on hALDH1a2 and at mALDH1a2 was above 5000 nM each time. Besides, the “hAldh1a3 IC50” value on hALDH1a3 is given as “No activity”.
Take `Cc1cc(NC(=O)c2ccncc2-c2ccccc2C#N)cc2c1NC(=O)CC2` [Compound 16]: the “mAldh1a3 IC50” value at mALDH1a3 is listed as “No activity”. Also, the IC50 on hALDH1a2 and on mALDH1a2 was above 5000 nM throughout. Also, the “hAldh1a3 IC50” value at hALDH1a3 is “No activity”.
Turning to `Cc1cc(NC(=O)c2ccncc2-c2cccc(O)c2)cc2c1NC(=O)CC2` [Compound 18], the “mAldh1a3 IC50” value on mALDH1a3 is given as “No activity”. Further, the IC50 on hALDH1a2 and on mALDH1a2 was 1000 to 5000 nM throughout. On hALDH1a3, the “hAldh1a3 IC50” value is listed as “No activity”.
Regarding `Cc1cc(NC(=O)c2ccncc2-c2ccc(O)cc2)cc2c1NC(=O)CC2` [Compound 19], the “mAldh1a3 IC50” value on mALDH1a3 is recorded as “No activity”. The IC50 at hALDH1a2 and at mALDH1a2 was 1000 to 5000 nM each time. For the same compound, on hALDH1a3, the “hAldh1a3 IC50” value is on record as “No activity”.
As to `Cc1c(F)c(NC(=O)c2scnc2CC(F)(F)F)cc2c1NC(=O)CC2` [Compound 78], the results for the IC50 on hALDH1a2 and at mALDH1a2 were 250 to 1000 nM and 1000 to 5000 nM, respectively.
On the same counts, the results for `CCc1ncsc1C(=O)Nc1cc2c(c(C)c1F)NC(=O)CC2` [Compound 79] are 250 to 1000 nM and 250 to 1000 nM.
As to `Cc1c(Cl)c(NC(=O)c2scnc2CC(F)(F)F)cc2c1NC(=O)CC2` [Compound 80], the IC50 at hALDH1a2 lay within 100 to 250 nM; at mALDH1a2, 250 to 1000 nM.
For `CCc1ncsc1C(=O)Nc1cc2c(c(C)c1Cl)NC(=O)CC2` [Compound 81], the IC50 at hALDH1a2 and at mALDH1a2 was 250 to 1000 nM throughout.
For `CCc1ncsc1C(=O)Nc1cc(Cl)c2c(c1)CCC(=O)N2` [Compound 83], the IC50 on hALDH1a2 and at mALDH1a2 was below 100 nM each time.
